These results are taken from patent publication US9963434B2, “N-arylmethyl sulfonamide negative modulators of NR2A” (LUC THERAPEUTICS, priority 2013, dated 2018).

pIC50: −log10 of the molar value. Where two headings read alike, the source gives them in different places. Where only a bound is given, the exact number is not on record here.

In this assay the target is NR1/NR2A (Homo sapiens (Human), UniProt Q05586+Q12879). As to the kind of experiment: FDSS Ca2+ influx inhibition assay in HEK293 cells expressing NR1/NR2A. The note with it: 3 μM glutamate, 3 μM glycine, 1 mM Ca2+. The class given is cell-based. The method, boiled down: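 Fluo-8-loaded HEK293 NR1/NR2A cells preincubated 10 min with compound at 10 μM final (0.1% DMSO) in Ca2+/Mg2+-free HBSS with 20 mM HEPES. Stimulated with 3 μM glutamate, 3 μM glycine, 1 mM Ca2+; FDSS recording for 3 min, end/baseline fluorescence ratio compared with MK801.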
NR1/NR2A, sequence (Q12879 23-1464, other chains not shown): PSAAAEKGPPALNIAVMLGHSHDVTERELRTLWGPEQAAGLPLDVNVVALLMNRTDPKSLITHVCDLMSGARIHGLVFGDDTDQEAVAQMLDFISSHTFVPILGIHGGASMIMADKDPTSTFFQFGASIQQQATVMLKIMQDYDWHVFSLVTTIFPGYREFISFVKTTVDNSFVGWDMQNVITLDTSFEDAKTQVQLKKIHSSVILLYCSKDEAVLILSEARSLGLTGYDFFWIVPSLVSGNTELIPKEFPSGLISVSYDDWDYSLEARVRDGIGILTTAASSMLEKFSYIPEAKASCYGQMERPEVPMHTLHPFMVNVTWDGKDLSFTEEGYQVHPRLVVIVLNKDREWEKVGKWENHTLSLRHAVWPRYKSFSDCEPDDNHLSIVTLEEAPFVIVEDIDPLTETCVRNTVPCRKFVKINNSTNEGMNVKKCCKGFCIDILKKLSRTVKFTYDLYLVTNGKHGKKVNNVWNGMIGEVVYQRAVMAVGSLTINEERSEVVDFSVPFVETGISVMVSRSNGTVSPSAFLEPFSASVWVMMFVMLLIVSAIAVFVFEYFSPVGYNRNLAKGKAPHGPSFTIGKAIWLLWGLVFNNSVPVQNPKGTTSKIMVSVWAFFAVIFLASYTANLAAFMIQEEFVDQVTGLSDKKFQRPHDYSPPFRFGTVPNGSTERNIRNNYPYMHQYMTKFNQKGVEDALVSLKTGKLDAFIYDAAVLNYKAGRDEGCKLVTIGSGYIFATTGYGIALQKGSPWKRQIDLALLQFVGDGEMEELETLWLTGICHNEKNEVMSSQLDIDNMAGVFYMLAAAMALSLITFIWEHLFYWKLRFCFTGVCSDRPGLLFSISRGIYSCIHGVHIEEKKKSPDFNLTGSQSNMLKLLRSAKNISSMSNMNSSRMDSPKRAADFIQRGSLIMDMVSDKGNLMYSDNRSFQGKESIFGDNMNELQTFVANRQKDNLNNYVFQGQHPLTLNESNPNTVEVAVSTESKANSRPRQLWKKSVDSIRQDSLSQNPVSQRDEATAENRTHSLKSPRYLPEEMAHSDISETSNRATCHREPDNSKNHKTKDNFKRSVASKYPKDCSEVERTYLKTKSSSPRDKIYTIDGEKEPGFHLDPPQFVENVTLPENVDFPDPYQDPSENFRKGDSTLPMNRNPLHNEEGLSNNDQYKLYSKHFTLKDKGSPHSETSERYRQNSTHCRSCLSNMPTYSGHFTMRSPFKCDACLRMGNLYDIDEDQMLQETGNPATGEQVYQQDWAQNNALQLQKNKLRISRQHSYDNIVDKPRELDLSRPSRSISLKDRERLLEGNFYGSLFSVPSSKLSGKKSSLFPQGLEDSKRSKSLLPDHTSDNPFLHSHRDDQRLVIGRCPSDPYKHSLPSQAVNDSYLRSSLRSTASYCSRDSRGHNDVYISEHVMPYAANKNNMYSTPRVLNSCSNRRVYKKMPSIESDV

Where [1] appears, read: inhibition relative to MK801, read-out: NR2A IC50.

Take `Cc1ncc(CNC(=O)c2cnc(CNS(=O)(=O)c3cc(Cl)cc(Cl)c3)c(C)n2)s1` [5-(3,5-dichlorobenzenesulfon-amidomethyl)-6-methyl-N-[(2-methyl-1,3-thiazol-5-yl)methyl]pyrazine-2-carboxamide]: the pIC50 by setting is: under setting [1], 5.00; (read-out: Binned Activity) under 5.00. For `Cn1cnc(CNC(=O)c2ccc(CNS(=O)(=O)c3ccc(F)c(Cl)c3)cn2)c1` [5-(3-chloro-4-fluorobenzenesulfon-amidomethyl)-N-[(1-methyl-1H-imidazol-4-yl)methyl]pyridine-2-carboxamide], in that order: 5.00 and under 5.00. Turning to `O=C(NCc1ncccc1C(F)(F)F)c1ccc(CNS(=O)(=O)c2ccc(F)c(Cl)c2)nc1` [6-(3-chloro-4-fluorobenzenesulfon-amidomethyl)-N-{[3-(trifluoromethyl)pyridin-2-yl]methyl}pyridine-3-carboxamide], the pIC50 under setting [1] is 5.00 and the pIC50 (read-out: Binned Activity) is under 5.00. For `O=C(NCc1cncnc1)c1ccc(CNS(=O)(=O)c2ccc(F)c(Cl)c2)nc1` [6-(3-chloro-4-fluorobenzenesulfon-amidomethyl)-N-(pyrimidin-5-ylmethyl)pyridine-3-carboxamide], in that order: 5.00 and under 5.00.

For `Cn1cnc(CNC(=O)c2ccc(CNS(=O)(=O)c3ccc(F)c(Cl)c3)nc2)c1` [6-(3-chloro-4-fluorobenzenesulfon-amidomethyl)-N-[(1-methyl-1H-imidazol-4-yl)methyl]pyridine-3-carboxamide], the pIC50 was 5.00 under setting [1] and under 5.00 (read-out: Binned Activity).

As for `Cc1ncc(CNC(=O)c2ccc(CNS(=O)(=O)c3ccc(C(F)(F)F)nc3)cn2)s1` [N-[(2-methyl-1,3-thiazol-5-yl)methyl]-5-[6-(trifluoromethyl)pyridine-3-sulfonamidomethyl] pyridine-2-carboxamide], the pIC50 by setting is: under setting [1], 5.00; (read-out: Binned Activity) under 5.00.

For the compound `O=C(NCc1cccnc1)c1ccc(CNS(=O)(=O)c2ccc(F)c(Cl)c2)nn1` [6-(3-chloro-4-fluorobenzenesulfon-amidomethyl)-N-(pyridin-3-ylmethyl)pyridazine-3-carboxamide], the pIC50 under setting [1] was 5.00 and the pIC50 (read-out: Binned Activity) was under 5.00. `Cc1ncc(CNC(=O)c2cnc(CNS(=O)(=O)c3cccs3)cn2)s1` [N-[(2-methyl-1,3-thiazol-5-yl)methyl]-5-(thiophene-2-sulfonamidomethyl) pyrazine-2-carboxamide]: the pIC50 (read-out: Binned Activity) was 5.00 to 6.00. For `COc1ccc(CCNC(=O)c2ccc(CNS(=O)(=O)c3ccc(F)c(Cl)c3)cn2)cc1` [5-(3-chloro-4-fluorobenzenesulfon-amidomethyl)-N-[2-(4-methoxyphenyl)ethyl] pyridine-2-carboxamide], the pIC50 runs as follows: under setting [1], 5.00; (read-out: Binned Activity) under 5.00. Consider `O=C(NCc1cocn1)c1ccc(CNS(=O)(=O)c2ccc(F)c(Cl)c2)nc1` [6-(3-chloro-4-fluorobenzenesulfon-amidomethyl)-N-(1,3-oxazol-4-ylmethyl)pyridine-3-carboxamide], for which the pIC50 is 5.00 under setting [1] and under 5.00 (read-out: Binned Activity). For `Cc1ncc(CNC(=O)c2ccc(CNS(=O)(=O)c3ccc(Cl)c4nonc34)cn2)s1` [5-(7-chloro-2,1,3-benzoxadiazole-4-sulfonamidomethyl)-N-[(2-methyl-1,3-thiazol-5-yl)methyl]pyridine-2-carboxamide], in that order: 5.00 and under 5.00. `Cn1ccnc1CNC(=O)c1ccc(CNS(=O)(=O)c2ccc(F)c(Cl)c2)nc1` [6-(3-chloro-4-fluorobenzenesulfon-amidomethyl)-N-[(1-methyl-1H-imidazol-2-yl)methyl]pyridine-3-carboxamide]: the pIC50 (read-out: Binned Activity) was 6.00 to 7.00.

As to `Cc1nc(CNC(=O)c2ccc(CNS(=O)(=O)c3ccc(F)c(Cl)c3)cn2)cs1` [5-(3-chloro-4-fluorobenzenesulfon-amidomethyl)-N-[(2-methyl-1,3-thiazol-4-yl)methyl]pyridine-2-carboxamide], the pIC50 under setting [1] was 5.00 and the pIC50 (read-out: Binned Activity) was under 5.00. Taken in the same sequence, the figures for `Cc1ncc(CNC(=O)c2ccc(CNS(=O)(=O)c3ccsc3)cn2)s1` [N-[(2-methyl-1,3-thiazol-5-yl)methyl]-5-(thiophene-3-sulfonamidomethyl) pyridine-2-carboxamide] were 5.00 and under 5.00. Taken in the same sequence, the figures for `CC(=O)N1CCc2cc(S(=O)(=O)NCc3ccc(C(=O)NCc4cnc(C)s4)nc3)ccc21` [5-(1-acetyl-2,3-dihydro-1H-indole-5-sulfonamidomethyl)-N-[(2-methyl-1,3-thiazol-5-yl)methyl]pyridine-2-carboxamide] were 5.00 and under 5.00.

With `Cc1cnc(CNC(=O)c2cnc(CNS(=O)(=O)c3ccc(F)c(Cl)c3)cn2)cn1` [5-(3-chloro-4-fluorobenzenesulfon-amidomethyl)-N-[(5-methylpyrazin-2-yl)methyl]pyrazine-2-carboxamide], under “read-out: Binned Activity”, the pIC50 was 5.00 to 6.00. On to `C[C@@H](NC(=O)c1ccc(CNS(=O)(=O)c2ccc(F)c(Cl)c2)nn1)c1cncs1` [6-(3-chloro-4-fluorobenzenesulfon-amidomethyl)-N-[(1R)-1-(1,3-thiazol-5-yl)ethyl]pyridazine-3-carboxamide], for which the pIC50 is, setting by setting: under setting [1], 5.00; (read-out: Binned Activity) under 5.00.

For the compound `O=C(NCc1cncs1)c1ccc(CNS(=O)(=O)c2ccc(F)c(Cl)c2)nn1` [6-(3-chloro-4-fluorobenzenesulfon-amidomethyl)-N-(1,3-thiazol-5-ylmethyl)pyridazine-3-carboxamide], the pIC50 runs as follows: under setting [1], 5.00; (read-out: Binned Activity) under 5.00. Take `Cc1ccncc1CNC(=O)c1ccc(CNS(=O)(=O)c2ccc(F)c(Cl)c2)cn1` [5-(3-chloro-4-fluorobenzenesulfon-amidomethyl)-N-[(4-methylpyridin-3-yl)methyl]pyridine-2-carboxamide]: the pIC50 (read-out: Binned Activity) is 6.00 to 7.00. On to `Cc1nc(C)c(CNC(=O)c2cnc(CNS(=O)(=O)c3ccc(F)c(Cl)c3)cn2)s1` [5-(3-chloro-4-fluorobenzenesulfon-amidomethyl)-N-[(dimethyl-1,3-thiazol-5-yl)methyl]pyrazine-2-carboxamide], for which the pIC50 was 5.00 under setting [1] and under 5.00 (read-out: Binned Activity). Take `Cc1ncc(CNC(=O)c2ccc(CNS(=O)(=O)c3cccc4cccnc34)cn2)s1` [N-[(2-methyl-1,3-thiazol-5-yl)methyl]-5-(quinoline-8-sulfonamidomethyl) pyridine-2-carboxamide]: the pIC50 by setting is: under setting [1], 5.00; (read-out: Binned Activity) under 5.00.
